Measured values taken from patent publication US20070093520A1, “Method of treatment of diarrhea-predominant irritable bowel syndrome in a subject” (priority 2005, published 2007).

Test system: diarrhea-predominant IBS subjects
Experiment: 3007 Study: open-label 52-week safety study, adverse events and withdrawals
[1] = Cilansetron 2 mg/Cilansetron 2 mg

Cc1nccn1C[C@H]1CCc2c(c3cccc4c3n2CCC4)C1=O [cilansetron, (R)-(−)-4,5,6,8,9,10-hexahydro-10-[(2-methyl-1H-imidazol-1-yl)methyl]-11H-pyrido-[3,2,1-jk]-carbazol-11-one]
36 (14%) n (%): TEAE: Gastrointestinal and Abdominal Pains (Excl Oral and Throat) [1]
10 (4%) n (%): TEAE: Arthralgia [1] | TEAE: Dyspeptic Signs and Symptoms [1]
11 (4%) n (%): TEAE: Blood Cholesterol Increased [1] | TEAE: Cholesterol Analyses [1]
12 (5%) n (%): TEAE: Back Pain [1]
5 (2%) n (%): TEAE: Arthropathies NEC [1] | TEAE: Gamma-Glutamyltransferase Increased [1] | TEAE: Gastroenteritis Viral NOS [1] | TEAE: Gastrointestinal Spastic and Hypermotility Disorders [1]
22 (9%) n (%): TEAE: Diarrhoea NOS [1]
18 (7%) n (%): TEAE: Bronchitis NOS [1]
4 (2%) n (%): TEAE: Abdominal Pain Aggravated [1] | TEAE: Abdominal Pain Lower [1] | TEAE: Aspartate Aminotransferase Increased [1] | TEAE: Blood in Stool [1] | TEAE: Dizziness [1] | TEAE: Fungal Infections NEC [1] | TEAE: Gastroenteritis NOS [1] | TEAE: Gastrointestinal Infections - Pathogen Class Unspecified [1] | TEAE: Haemorrhoids [1]
14 (5%) n (%): TEAE: Abdominal Pain NOS [1]
8 (3%) n (%): TEAE: Alanine Aminotransferase Increased [1]
7 (3%) n (%): TEAE: Abdominal Pain Upper [1]
16 (6%) n (%): TEAE: Flatulence [1]
9 (4%) n (%): TEAE: Abdominal Distension [1] | TEAE: Abdominal Tenderness [1] | TEAE: Dental Infections - Pathogen Class Unspecified [1]
134 (52%) n (%): TEAE: Gastrointestinal Disorders [1]
24 (9%) n (%): TEAE: Diarrhoea (Excl Infective) [1]
1 (<1%) n (%): TEAE: Vulvovaginal Signs and Symptoms* (C/C group) | TEAE: Wheezing (C/C group) | TEAE: Abdominal Discomfort [1] | TEAE: Abdominal Rebound Tenderness [1] | TEAE: Abnormal Reflexes [1] | TEAE: Anal and Rectal Signs and Symptoms [1] | TEAE: Appendicitis [1] | TEAE: Arthritis NOS Aggravated [1] | TEAE: Arthropod Bite [1] | TEAE: Bacteria Identification and Serology (Excl Mycobacteria) [1] | TEAE: Bilirubin Urine [1] | TEAE: Blood Creatine Phosphokinase Mb Increased [1] | TEAE: Blood Creatinine Increased [1] | TEAE: Blood Potassium Increased [1] | TEAE: Blood Sodium Increased [1] | TEAE: Bone Disorder NOS [1] | TEAE: Bone Disorders NEC [1] | TEAE: Bone Injury [1] | TEAE: Bursitis [1] | TEAE: Candidal Infection NOS [1] | TEAE: Cardiac Auscultatory Investigations [1] | TEAE: Cardiac Murmur NOS [1] | TEAE: Cartilage Disorder NOS [1] | TEAE: Cartilage Disorders [1] | TEAE: Cervical Spasm [1] | TEAE: Colonic Polyp [1] | TEAE: Cystitis NOS [1] | TEAE: Dental Disorders NEC [1] | TEAE: Diverticulitis NOS [1] | TEAE: Diverticulum Inflammations [1] | TEAE: Dry Mouth [1] | TEAE: ECG Investigations [1] | TEAE: Electrocardiogram Qrs Complex Abnormal [1] | TEAE: Eye Injuries NEC [1] | TEAE: Faecal Abnormality NOS [1] | TEAE: Faecal Incontinence [1] | TEAE: Faeces Hard [1] | TEAE: Fibromyalgia [1] | TEAE: Food Poisoning NOS [1] | TEAE: Foot Fracture [1] | TEAE: Fractures and Dislocations NEC [1] | TEAE: Frequent Bowel Movements [1] | TEAE: Gastric Irritation [1] | TEAE: Gastrointestinal Disorders NEC [1] | TEAE: Gastrointestinal Inflammatory Disorders NEC [1] | TEAE: Gastrointestinal Mucosal Dystrophies and Secretion Disorders [1] | TEAE: Gingival Atrophy [1] | TEAE: Gingival Disorders NEC [1] | TEAE: Gingival Pain [1] | TEAE: Gingival Pains [1] | TEAE: Gingivitis Infection NOS [1] | TEAE: Glucose Urine Present [1] | TEAE: Groin Pain [1] | TEAE: Haematocrit Decreased [1] | TEAE: Haemoglobin Decreased [1] | TEAE: Halitosis [1] | TEAE: Heart Rate Increased [1] | TEAE: Heart Rate and Pulse Investigations [1] | TEAE: Heat Exhaustion [1] | TEAE: Heat Injuries (Excl Thermal Burns) [1] | TEAE: Helicobacter Pylori Antibody Positive [1] | TEAE: Herpes Simplex Aggravated [1] | TEAE: Hyperreflexia [1] | TEAE: Hypoaesthesia [1] | TEAE: Infected Varicose Vein [1]
2 (<1%) n (%): TEAE: Back Pain Aggravated [1] | TEAE: Blood Alkaline Phosphatase NOS Increased [1] | TEAE: Blood Bilirubin Increased [1] | TEAE: Blood Glucose Increased [1] | TEAE: Blood Uric Acid Increased [1] | TEAE: Bronchitis Acute NOS [1] | TEAE: Bunion [1] | TEAE: Candida Infections [1] | TEAE: Carbohydrate Tolerance Analyses (Incl Diabetes) [1] | TEAE: Carpal Tunnel Syndrome [1] | TEAE: Connective Tissue Disorders (Excl Le) [1] | TEAE: Dental Pain and Sensation Disorders [1] | TEAE: Diaphragmatic Hernias [1] | TEAE: Dyspepsia Aggravated [1] | TEAE: Ear Infection NOS [1] | TEAE: Ear Infections [1] | TEAE: Eructation [1] | TEAE: Faeces Abnormal [1] | TEAE: Fungal Infection NOS [1] | TEAE: Gastrointestinal Dyskinetic Disorders [1] | TEAE: Gastrointestinal Motility Disorder NOS [1] | TEAE: Gastrointestinal Signs and Symptoms NEC [1] | TEAE: Gingival Abscess [1] | TEAE: Haemorrhoidal Haemorrhage [1] | TEAE: Herpes Simplex [1] | TEAE: Hiatus Hernia [1]
25 (10%) n (%): TEAE: Gastrointestinal Histopathology Procedures [1] | TEAE: Headaches NEC [1]
19 (7%) n (%): TEAE: Blood Creatine Phosphokinase Increased [1] | TEAE: Headache NOS [1]
3 (1%) n (%): TEAE: Arthritis NOS [1] | TEAE: Back Injury NOS [1] | TEAE: Blood Pressure Increased [1] | TEAE: Bursal Disorders [1] | TEAE: Diarrhoea Aggravated [1] | TEAE: Disturbances in Consciousness NEC [1] | TEAE: Gastritis (Excl Infective) [1] | TEAE: Gastritis NOS [1] | TEAE: Headache NOS Aggravated [1] | TEAE: Herpes Viral Infections [1] | TEAE: Infections NEC [1]
0 n (%): TEAE: Anal and Rectal Disorders NEC [1] | TEAE: Anal and Rectal Pains [1] | TEAE: Animal Bite [1] | TEAE: Arthropod Sting [1] | TEAE: Bladder Infection NOS [1] | TEAE: Bone Density Decreased [1] | TEAE: Bone Spur [1] | TEAE: Bronchopneumonia NOS [1] | TEAE: Carotid Bruit [1] | TEAE: Cellulitis [1] | TEAE: Change in Bowel Habit NOS [1] | TEAE: Chapped Lips [1] | TEAE: Chest Wall Pain [1] | TEAE: Colitis (Excl Infective) [1] | TEAE: Colitis Ischaemic [1] | TEAE: Diarrhoea Haemorrhagic [1] | TEAE: Dysarthria [1] | TEAE: Dyskinesias and Movement Disorders NEC [1] | TEAE: Electrocardiogram T Wave Inversion [1] | TEAE: Enteritis [1] | TEAE: Epigastric Discomfort [1] | TEAE: Faecal Impaction [1] | TEAE: Gingivitis [1] | TEAE: Haemorrhoids Aggravated [1] | TEAE: Herpes Zoster [1]
6 (2%) n (%): TEAE: Blood Triglycerides Increased [1] | TEAE: Blood Urine Present [1] | TEAE: Dyspepsia [1] | TEAE: Haemorrhoids and Gastrointestinal Varices (Excl Oesophageal) [1]
66 (26%) n (%): TEAE: Constipation [1]
70 (27%) n (%): TEAE: Gastrointestinal Atonic and Hypomotility Disorders NEC [1]
23 (9%) n (%): TEAE: Faecal Occult Blood Positive [1] | TEAE: Flatulence, Bloating and Distension [1]
